Results from patent publication US4528287A, “6-Fluoro-1, 4-dihydro-4-oxo-7-substituted piperazinylquinoline-3-carboxylic acids and the method for preparing the same” (priority 1983, dated 1985).
Converted amounts (≈) assume the structure as drawn.

Columns and labels:
[1] = test system: Escherichia coli K-12 C600; assay: MIC, twofold agar dilution; type: cell-based; conditions: K12C600, Gram -, 10^6 cells/ml, 18 hrs, 37° C., read-out: Minimum inhibitory concentration (MIC)
Experimental: (§1) Minimum inhibitory concentrations (MIC) were determined by the twofold agar dilution method (Chemotherapy, 29(1), 76(1981)). Overnight cultures in Mueller-Hinton broth were suspended by buffered saline gelatine. One loopful of the bacterial suspension (10^6 or 10^8 colony-forming units/ml) was incubated onto the test compound-containing plates. The plates were incubated for 18 hrs. at 37° C. The MIC was the lowest concentration of the drug that inhibited visible growth.

[2] = test system: Pseudomonas aeruginosa IFO3445; assay: MIC, twofold agar dilution; type: cell-based; conditions: Gram -, 10^6 cells/ml, 18 hrs, 37° C., read-out: Minimum inhibitory concentration (MIC)
Experimental: as §1

[3] = test system: Serratia marcescens IAM1184; assay: MIC, twofold agar dilution; type: cell-based; conditions: Gram -, 10^6 cells/ml, 18 hrs, 37° C., read-out: Minimum inhibitory concentration (MIC)
Experimental: as §1

[4] = test system: Salmonella typhi 901; assay: MIC, twofold agar dilution; type: cell-based; conditions: Salmonella enterica, 18 h, read-out: Minimum inhibitory concentration (MIC)
Experimental: as §1

[5] = test system: Staphylococcus aureus Terajima; assay: MIC, twofold agar dilution; type: cell-based; conditions: Gram +, 10^6 cells/ml, 18 hrs, 37° C., read-out: Minimum inhibitory concentration (MIC)
Experimental: as §1

[6] = test system: Proteus vulgalis HX-19; assay: MIC, twofold agar dilution; type: cell-based; conditions: Gram -; 10^6 cells/ml; 18 hrs, 37° C.; read-out: Minimum inhibitory concentration (MIC)
Experimental: as §1

[7] = test system: Salmonella enteritidis G14; assay: MIC, twofold agar dilution; type: cell-based; conditions: Salmonella enterica, Gram -, 10^6 cells/ml, 18 hrs, 37° C., read-out: Minimum inhibitory concentration (MIC)
Experimental: as §1

[8] = test system: Staphylococcus aureus MS-353; assay: MIC, twofold agar dilution; type: cell-based; conditions: MS353, Gram +, 10^6 cells/ml, 18 hrs, 37° C., read-out: Minimum inhibitory concentration (MIC)
Experimental: as §1

[9] = test system: Pseudomonas aeruginosa NCTC10490; assay: MIC, twofold agar dilution; type: cell-based; conditions: Gram -, 10^6 cells/ml, 18 hrs, 37° C., read-out: Minimum inhibitory concentration (MIC)
Experimental: as §1

[10] = test system: Escherichia coli NIHJ-JC-2; assay: MIC, twofold agar dilution; type: cell-based; conditions: NIHJJC2, Gram -, 10^6 cells/ml, 18 hrs, 37° C., read-out: Minimum inhibitory concentration (MIC)
Experimental: as §1

[11] = test system: Bacillus subtilis ATCC6633; assay: MIC, twofold agar dilution; type: cell-based; conditions: Gram +, 10^6 cells/ml, 18 hrs, 37° C., read-out: Minimum inhibitory concentration (MIC)
Experimental: as §1

[12] = test system: Proteus mirabilis IFO3849; assay: MIC, twofold agar dilution; type: cell-based; conditions: Gram -, 10^6 cells/ml, 18 hrs, 37° C., read-out: Minimum inhibitory concentration (MIC)
Experimental: as §1

[13] = test system: Proteus vulgalis OX-19; assay: MIC, twofold agar dilution; type: cell-based; conditions: Gram -; 10^6 cells/ml; 18 hrs, 37° C.; read-out: Minimum inhibitory concentration (MIC)
Experimental: as §1

[14] = test system: Staphylococcus aureus FAD208PJC-1; assay: MIC, twofold agar dilution; type: cell-based; conditions: FAD208PJC1, Gram +, 10^6 cells/ml, 18 hrs, 37° C., read-out: Minimum inhibitory concentration (MIC)
Experimental: as §1

[15] = test system: Proteus rettgeri IFO3850; assay: MIC, twofold agar dilution; type: cell-based; conditions: Providencia rettgeri, Gram -, 10^6 cells/ml, 18 hrs, 37° C., read-out: Minimum inhibitory concentration (MIC)
Experimental: as §1

[16] = test system: Enterobacter aerogenes ATCC13048; assay: MIC, twofold agar dilution; type: cell-based; conditions: Klebsiella aerogenes, Gram -, 10^6 cells/ml, 18 hrs, 37° C., read-out: Minimum inhibitory concentration (MIC)
Experimental: as §1

[17] = test system: Micrococcus luteus ATCC9341; assay: MIC, twofold agar dilution; type: cell-based; conditions: Gram +, 10^6 cells/ml, 18 hrs, 37° C., read-out: Minimum inhibitory concentration (MIC)
Experimental: as §1

[18] = test system: Salmonella typhimurium IID 971; assay: MIC, twofold agar dilution; type: cell-based; conditions: Salmonella enterica; Gram -; 10^6 cells/ml; 18 hrs, 37° C.; read-out: Minimum inhibitory concentration (MIC)
Experimental: as §1

[19] = test system: Streptococcus pyogenes Cook; assay: MIC, twofold agar dilution; type: cell-based; conditions: Gram +, 10^6 cells/ml, 18 hrs, 37° C., read-out: Minimum inhibitory concentration (MIC)
Experimental: as §1

[20] = test system: Klebsiella pneumoniae PCI-602; assay: MIC, twofold agar dilution; type: cell-based; conditions: PCI602, Gram -, 10^6 cells/ml, 18 hrs, 37° C., read-out: Minimum inhibitory concentration (MIC)
Experimental: as §1

[21] = test system: Proteus morganii IFO3848; assay: MIC, twofold agar dilution; type: cell-based; conditions: Morganella morganii, Gram -, 10^6 cells/ml, 18 hrs, 37° C., read-out: Minimum inhibitory concentration (MIC)
Experimental: as §1

[22] = test system: Enterobacter cloaceas 963; assay: MIC, twofold agar dilution; type: cell-based; conditions: Gram -, 10^6 cells/ml, 18 hrs, 37° C., read-out: Minimum inhibitory concentration (MIC)
Experimental: as §1

[23] = test system: Pseudomonas aeruginosa ATCC9027; assay: MIC, twofold agar dilution; type: cell-based; conditions: Gram -, 10^6 cells/ml, 18 hrs, 37° C., read-out: Minimum inhibitory concentration (MIC)
Experimental: as §1

[24] = test system: Salmonella schottmulleri 0006; assay: MIC, twofold agar dilution; type: cell-based; conditions: Gram -, 10^6 cells/ml, 18 hrs, 37° C., read-out: Minimum inhibitory concentration (MIC)
Experimental: as §1

[25] = test system: Pseudomonas aeruginosa PAO7; assay: MIC, twofold agar dilution; type: cell-based; conditions: Gram -, 10^6 cells/ml, 18 hrs, 37° C., read-out: Minimum inhibitory concentration (MIC)
Experimental: as §1

[26] = test system: Salmonella paratyphi 1015; assay: MIC, twofold agar dilution; type: cell-based; conditions: Salmonella enterica, 18 h, read-out: Minimum inhibitory concentration (MIC)
Experimental: as §1

[27] = Urinary excretion in rats after oral dosing (bioassay with Escherichia coli NIHJ-JC-2); type: in vivo, SD strain); conditions: rat, male SD rats, 20 mg/Kg per os, fasted 24 hr
Experimental: Male rats of SD strain, weighing 180-210 g, were used 8 animals at a group. Test compounds suspended in 0.5% carboxymethyl cellulose were administered per os to 24 hr-fasted rats at dose of 20 mg/Kg. Urine was pooled from 0 to 6 hrs. and 6 to 24 hrs, and urinary excretion was measured by bioassay using Escherichia coli NIHJ-JC-2.
The assay method employed was the cup-plate method using
Escherichia coli NIHJ-JC-2. Urine was appropriately diluted with 1/15M phosphate buffer pH7.0, before assay if necessary. Standard calibration lines were made in 1/15M phosphate buffer pH7.0.

Row | SMILES | MIC [1] [µg/mL] | MIC [2] [µg/mL] | MIC [3] [µg/mL] | MIC [4] [µg/mL] | MIC [5] [µg/mL] | MIC [6] [µg/mL] | MIC [7] [µg/mL] | MIC [8] [µg/mL] | MIC [9] [µg/mL] | MIC [10] [µg/mL] | MIC [11] [µg/mL] | MIC [12] [µg/mL] | MIC [13] [µg/mL] | MIC [14] [µg/mL] | MIC [15] [µg/mL] | MIC [16] [µg/mL] | MIC [17] [µg/mL] | MIC [18] [µg/mL] | MIC [19] [µg/mL] | MIC [20] [µg/mL] | also measured
1 | CC1CN(c2c(F)cc3c(=O)c(C(=O)O)cn(CCF)c3c2F)CCN1 (stereo not drawn) [Example 16, 6,8-Difluoro-1-(2-fluoroethyl)-1,4-dihydro-7-(3-methyl-1-piperazinyl)-4-oxoquinoline-3-carboxylic acid] | 0.2 (≈ 0.542 µM) | 0.78 (≈ 2.11 µM) | 0.2 (≈ 0.542 µM) | 0.1 (≈ 0.271 µM) | 0.78 (≈ 2.11 µM) | 0.05 (≈ 0.135 µM) | 0.2 (≈ 0.542 µM) | 1.56 (≈ 4.22 µM) | 0.38 (≈ 1.03 µM) | 0.1 (≈ 0.271 µM) | 0.2 (≈ 0.542 µM) | 0.39 (≈ 1.06 µM) | 0.2 (≈ 0.542 µM) | 0.38 (≈ 1.03 µM) | 0.2 (≈ 0.542 µM) | 0.2 (≈ 0.542 µM) | 6.25 (≈ 16.9 µM) | 0.2 (≈ 0.542 µM) | 3.13 (≈ 8.47 µM) | 0.023 (≈ 0.0623 µM) | MIC [21]: 0.05 µg/mL (≈ 0.135 µM); MIC [22]: 0.2 µg/mL (≈ 0.542 µM); MIC [23]: 0.1 µg/mL (≈ 0.271 µM); MIC [24]: 0.1 µg/mL (≈ 0.271 µM); MIC [25]: 1.56 µg/mL (≈ 4.22 µM); MIC [26]: 0.05 µg/mL (≈ 0.135 µM); concentration at 6 h ([27]; urine 0-6 hr, read-out: Drug Concentration in Urine 0-6 (hr)): 344 µg/mL; dose excreted at 24 h ([27]; urine 0-24 hr, read-out: Rate of Urinary Excretion 0-24 (hr)): 41%; concentration at 24 h ([27]; urine 6-24 hr, read-out: Drug Concentration in Urine 6-24 (hr)): 46 µg/mL
2 | CCn1cc(C(=O)O)c(=O)c2cc(F)c(N3CC(C)NC(C)C3)c(F)c21 (stereo not drawn) [Example 20] | 0.2 (≈ 0.547 µM) | 3.13 (≈ 8.57 µM) | 0.78 (≈ 2.13 µM) | 0.1 (≈ 0.274 µM) | 1.56 (≈ 4.27 µM) | 0.2 (≈ 0.547 µM) | 0.39 (≈ 1.07 µM) | 1.56 (≈ 4.27 µM) | 0.78 (≈ 2.13 µM) | 0.39 (≈ 1.07 µM) | 0.2 (≈ 0.547 µM) | 1.56 (≈ 4.27 µM) | 0.1 (≈ 0.274 µM) | 0.78 (≈ 2.13 µM) | 0.39 (≈ 1.07 µM) | 0.2 (≈ 0.547 µM) | 12.5 (≈ 34.2 µM) | 0.2 (≈ 0.547 µM) | 6.25 (≈ 17.1 µM) | 0.2 (≈ 0.547 µM) | MIC [21]: 0.2 µg/mL (≈ 0.547 µM); MIC [22]: 0.2 µg/mL (≈ 0.547 µM); MIC [23]: 0.2 µg/mL (≈ 0.547 µM); MIC [24]: 0.1 µg/mL (≈ 0.274 µM); MIC [25]: 3.13 µg/mL (≈ 8.57 µM); MIC [26]: 0.1 µg/mL (≈ 0.274 µM)
3 | CCn1cc(C(=O)O)c(=O)c2cc(F)c(N3CCNCC3)cc21 [Reference Drug, norfloxacin, reference compound] | 0.05 (≈ 0.157 µM) | 0.78 (≈ 2.44 µM) | 0.1 (≈ 0.313 µM) | 0.025 (≈ 0.0783 µM) | 0.39 (≈ 1.22 µM) | 0.025 (≈ 0.0783 µM) | 0.05 (≈ 0.157 µM) | 6.25 (≈ 19.6 µM) | 0.78 (≈ 2.44 µM) | 0.05 (≈ 0.157 µM) | 0.1 (≈ 0.313 µM) | 0.1 (≈ 0.313 µM) | 0.05 (≈ 0.157 µM) | 0.2 (≈ 0.626 µM) | 0.05 (≈ 0.157 µM) | 0.1 (≈ 0.313 µM) | 6.25 (≈ 19.6 µM) | 0.05 (≈ 0.157 µM) | 1.56 (≈ 4.89 µM) | 0.025 (≈ 0.0783 µM) | MIC [21]: 0.025 µg/mL (≈ 0.0783 µM); MIC [22]: 0.05 µg/mL (≈ 0.157 µM); MIC [23]: 0.05 µg/mL (≈ 0.157 µM); MIC [24]: 0.025 µg/mL (≈ 0.0783 µM); MIC [25]: 0.39 µg/mL (≈ 1.22 µM); MIC [26]: 0.025 µg/mL (≈ 0.0783 µM)
